Remaining activity data for one compound are collected here from publication PMC8500670, “A selective WDR5 degrader inhibits acute myeloid leukemia in patient-derived mouse models” (Science translational medicine, 2021).

What all share (assay): biochemical
Common to all, as to set-up: protein methyltransferase selectivity panel, enzyme activity relative to DMSO controls, single concentration in duplicate

The target of one experiment is DOT1L (Homo sapiens, UniProt Q8TEK3). The settings on record: Substrate:=Nucleosomes. As to the method:
(§1) We next assessed selectivity of MS67 against 22 protein methyltransferases (table S2) and a broad panel of common drug targets including 45 kinases (table S3) and 44 G protein–coupled receptors (GPCR), ion channels, and transporters (table S4). […] We subsequently determined that MS67 had moderate binding affinity (Ki = 1.0 ± 0.8 μM) to Sigma 2 receptor (fig. S10).

Another experiment has as its target T1, NSD3 (Homo sapiens, UniProt Q9BZ95).
T1 sequence (Q9BZ95 1-1437): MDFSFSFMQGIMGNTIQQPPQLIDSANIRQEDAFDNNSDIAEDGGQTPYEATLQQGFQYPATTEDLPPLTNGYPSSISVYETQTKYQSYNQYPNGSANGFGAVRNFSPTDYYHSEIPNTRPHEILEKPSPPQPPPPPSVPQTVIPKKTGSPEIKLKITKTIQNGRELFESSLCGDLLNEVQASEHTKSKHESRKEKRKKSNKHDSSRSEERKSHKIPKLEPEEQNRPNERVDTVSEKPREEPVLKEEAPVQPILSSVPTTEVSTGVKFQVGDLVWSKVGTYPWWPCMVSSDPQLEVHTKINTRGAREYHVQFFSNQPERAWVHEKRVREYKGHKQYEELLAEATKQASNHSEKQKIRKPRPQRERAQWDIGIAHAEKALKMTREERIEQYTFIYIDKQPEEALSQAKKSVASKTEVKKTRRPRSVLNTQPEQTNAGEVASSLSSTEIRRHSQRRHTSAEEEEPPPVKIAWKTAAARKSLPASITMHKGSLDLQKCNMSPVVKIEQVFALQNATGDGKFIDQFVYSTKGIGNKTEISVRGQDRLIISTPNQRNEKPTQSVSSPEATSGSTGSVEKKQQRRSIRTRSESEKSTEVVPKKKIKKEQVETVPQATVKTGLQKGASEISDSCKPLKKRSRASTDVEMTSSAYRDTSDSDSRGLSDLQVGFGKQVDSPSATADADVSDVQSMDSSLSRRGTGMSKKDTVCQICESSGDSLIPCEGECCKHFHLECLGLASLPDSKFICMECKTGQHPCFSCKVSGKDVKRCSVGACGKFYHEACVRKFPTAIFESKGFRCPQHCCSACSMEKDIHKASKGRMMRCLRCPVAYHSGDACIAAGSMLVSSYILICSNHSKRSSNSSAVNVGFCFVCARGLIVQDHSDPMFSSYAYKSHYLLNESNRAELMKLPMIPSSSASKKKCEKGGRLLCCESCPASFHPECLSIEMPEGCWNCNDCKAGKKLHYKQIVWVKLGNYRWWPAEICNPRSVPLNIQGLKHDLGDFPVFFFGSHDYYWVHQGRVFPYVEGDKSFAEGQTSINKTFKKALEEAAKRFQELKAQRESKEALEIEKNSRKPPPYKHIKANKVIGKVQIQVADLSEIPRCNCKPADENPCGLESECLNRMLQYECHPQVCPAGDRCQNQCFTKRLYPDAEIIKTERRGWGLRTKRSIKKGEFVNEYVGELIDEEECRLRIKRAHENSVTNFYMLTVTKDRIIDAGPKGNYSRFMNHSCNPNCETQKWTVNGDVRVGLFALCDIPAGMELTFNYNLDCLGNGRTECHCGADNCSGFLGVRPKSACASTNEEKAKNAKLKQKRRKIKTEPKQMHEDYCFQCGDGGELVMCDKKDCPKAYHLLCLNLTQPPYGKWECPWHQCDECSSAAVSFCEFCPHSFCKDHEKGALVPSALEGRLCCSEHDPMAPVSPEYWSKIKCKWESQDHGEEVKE
The settings on record: Substrate:=Nucleosomes. As to the method:
as §1

The target in another experiment is PRMT1 (Homo sapiens, UniProt Q99873). The settings on record: Substrate:=Histone H4. As to the method:
as §1

The next experiment concerns the target PRMT3 (Homo sapiens, UniProt O60678). The following applies: Substrate:=Histone H4. As to the method: as §1
The target of another experiment is T2, SUV39H1 (Homo sapiens, UniProt O43463).
T2 sequence (O43463 1-412): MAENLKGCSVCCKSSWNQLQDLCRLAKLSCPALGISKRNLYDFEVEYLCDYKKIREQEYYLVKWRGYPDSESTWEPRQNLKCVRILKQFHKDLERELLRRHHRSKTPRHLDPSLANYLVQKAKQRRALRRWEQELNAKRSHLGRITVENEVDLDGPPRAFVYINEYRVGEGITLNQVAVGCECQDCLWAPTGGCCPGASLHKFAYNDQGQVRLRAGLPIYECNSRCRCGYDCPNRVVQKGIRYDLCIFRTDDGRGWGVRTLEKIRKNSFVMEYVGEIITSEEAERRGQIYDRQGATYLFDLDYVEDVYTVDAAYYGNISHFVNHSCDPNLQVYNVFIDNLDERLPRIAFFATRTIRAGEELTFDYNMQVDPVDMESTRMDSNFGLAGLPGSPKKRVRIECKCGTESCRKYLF
The following applies: Substrate:=Histone H3. As to the method:
as §1

In a further experiment the target is SUV39H2 (Homo sapiens, UniProt Q9H5I1). The following applies: Substrate:=Histone H3; read-out: Enzyme % Activity (relative to DMSO controls) / MS67 / 10 / Data 1:
As to the method: as §1

Where [1] appears, read: read-out: Enzyme % Activity (relative to DMSO controls) / MS67 / 10 / Data 1:
[2] abbreviates: read-out: Enzyme % Activity (relative to DMSO controls) / MS67 / 10 / Data 2:

Where two headings read alike, the source gives them in different places.

Chain of PRMT1 (Q99873 whole entry): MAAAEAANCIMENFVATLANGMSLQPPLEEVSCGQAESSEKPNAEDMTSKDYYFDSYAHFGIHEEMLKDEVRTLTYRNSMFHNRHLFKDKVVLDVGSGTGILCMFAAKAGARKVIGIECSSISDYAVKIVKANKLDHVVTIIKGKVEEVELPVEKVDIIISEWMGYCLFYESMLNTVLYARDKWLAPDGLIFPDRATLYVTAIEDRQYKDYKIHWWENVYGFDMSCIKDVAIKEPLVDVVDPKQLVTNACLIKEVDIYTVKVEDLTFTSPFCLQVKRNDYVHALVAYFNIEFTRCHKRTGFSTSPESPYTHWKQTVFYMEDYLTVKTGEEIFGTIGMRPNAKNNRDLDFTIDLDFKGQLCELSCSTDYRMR
Chain of DOT1L (Q8TEK3 whole entry): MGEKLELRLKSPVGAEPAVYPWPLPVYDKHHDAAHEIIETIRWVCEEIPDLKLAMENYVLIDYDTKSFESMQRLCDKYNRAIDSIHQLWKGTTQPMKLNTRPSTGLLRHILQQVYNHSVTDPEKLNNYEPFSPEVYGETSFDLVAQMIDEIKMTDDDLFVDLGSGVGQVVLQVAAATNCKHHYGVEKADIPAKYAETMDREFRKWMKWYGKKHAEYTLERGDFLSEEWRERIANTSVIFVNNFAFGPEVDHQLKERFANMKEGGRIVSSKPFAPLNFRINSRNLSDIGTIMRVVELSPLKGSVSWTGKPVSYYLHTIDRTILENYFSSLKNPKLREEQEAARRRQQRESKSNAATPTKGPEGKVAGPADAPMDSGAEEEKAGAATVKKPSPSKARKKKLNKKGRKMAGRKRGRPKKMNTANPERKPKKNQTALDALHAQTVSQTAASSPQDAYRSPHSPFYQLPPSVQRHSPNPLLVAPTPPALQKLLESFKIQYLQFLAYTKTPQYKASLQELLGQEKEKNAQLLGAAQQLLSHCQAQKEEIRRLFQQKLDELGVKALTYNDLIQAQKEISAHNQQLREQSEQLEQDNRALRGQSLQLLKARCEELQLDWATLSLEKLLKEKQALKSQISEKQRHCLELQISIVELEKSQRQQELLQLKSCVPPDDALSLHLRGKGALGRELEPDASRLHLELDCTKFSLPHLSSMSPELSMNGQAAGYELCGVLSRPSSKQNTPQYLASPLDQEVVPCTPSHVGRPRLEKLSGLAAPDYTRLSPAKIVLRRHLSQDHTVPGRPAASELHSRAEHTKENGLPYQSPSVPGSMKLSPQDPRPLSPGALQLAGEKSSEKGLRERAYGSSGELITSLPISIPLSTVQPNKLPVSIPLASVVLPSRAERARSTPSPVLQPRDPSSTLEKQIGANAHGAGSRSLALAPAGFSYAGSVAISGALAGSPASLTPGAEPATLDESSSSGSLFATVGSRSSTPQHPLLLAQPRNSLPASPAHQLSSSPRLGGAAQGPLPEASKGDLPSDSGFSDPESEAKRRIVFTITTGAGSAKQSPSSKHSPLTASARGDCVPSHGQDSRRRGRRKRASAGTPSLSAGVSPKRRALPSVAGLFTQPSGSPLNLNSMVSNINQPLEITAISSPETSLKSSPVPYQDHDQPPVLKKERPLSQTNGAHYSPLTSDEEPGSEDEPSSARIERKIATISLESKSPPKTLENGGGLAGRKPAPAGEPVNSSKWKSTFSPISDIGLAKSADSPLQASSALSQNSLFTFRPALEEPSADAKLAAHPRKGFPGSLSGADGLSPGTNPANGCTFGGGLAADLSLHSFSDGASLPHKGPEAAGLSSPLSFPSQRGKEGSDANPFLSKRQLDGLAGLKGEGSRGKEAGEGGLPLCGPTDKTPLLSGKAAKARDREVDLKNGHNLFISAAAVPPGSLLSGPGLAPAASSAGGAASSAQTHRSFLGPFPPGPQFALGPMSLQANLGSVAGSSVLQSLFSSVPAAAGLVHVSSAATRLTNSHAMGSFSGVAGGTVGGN
Chain of PRMT3 (O60678 whole entry): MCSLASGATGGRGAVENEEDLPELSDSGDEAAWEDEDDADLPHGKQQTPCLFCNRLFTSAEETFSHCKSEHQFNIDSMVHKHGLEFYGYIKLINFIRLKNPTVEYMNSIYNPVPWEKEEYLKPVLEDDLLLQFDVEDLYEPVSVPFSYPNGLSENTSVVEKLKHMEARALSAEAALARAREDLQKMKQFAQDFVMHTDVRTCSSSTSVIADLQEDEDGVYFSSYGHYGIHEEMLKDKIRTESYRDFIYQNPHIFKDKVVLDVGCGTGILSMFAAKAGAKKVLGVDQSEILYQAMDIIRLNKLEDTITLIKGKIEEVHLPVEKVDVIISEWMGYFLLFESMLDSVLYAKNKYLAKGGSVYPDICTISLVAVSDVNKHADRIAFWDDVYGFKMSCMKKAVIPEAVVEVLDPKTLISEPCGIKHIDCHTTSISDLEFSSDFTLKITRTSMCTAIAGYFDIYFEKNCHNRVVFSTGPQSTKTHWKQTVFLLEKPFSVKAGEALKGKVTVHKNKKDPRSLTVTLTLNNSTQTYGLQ
Chain of SUV39H2 (Q9H5I1 whole entry): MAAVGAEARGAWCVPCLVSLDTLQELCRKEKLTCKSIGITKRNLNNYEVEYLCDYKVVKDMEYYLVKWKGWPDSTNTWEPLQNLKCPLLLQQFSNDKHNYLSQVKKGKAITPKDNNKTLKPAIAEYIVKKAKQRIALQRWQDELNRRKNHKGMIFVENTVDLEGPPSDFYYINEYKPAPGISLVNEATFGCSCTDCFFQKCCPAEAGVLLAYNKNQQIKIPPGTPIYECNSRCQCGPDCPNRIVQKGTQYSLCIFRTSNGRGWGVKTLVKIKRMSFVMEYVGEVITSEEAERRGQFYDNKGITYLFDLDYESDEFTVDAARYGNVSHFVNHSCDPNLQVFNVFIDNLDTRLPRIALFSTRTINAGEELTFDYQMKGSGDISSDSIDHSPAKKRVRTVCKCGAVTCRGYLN

Turning to `Cc1ncsc1-c1ccc([C@H](C)NC(=O)[C@@H]2C[C@@H](O)CN2C(=O)[C@@H](NC(=O)CNC(=O)c2ccc(F)c(-c3ccc(N4C[C@@H](C)N(C)[C@@H](C)C4)c(NC(=O)c4c[nH]c(=O)cc4C(F)(F)F)c3)c2)C(C)(C)C)cc1` [MS67], the remaining activity at 10 µM at DOT1L (setting [1]) is 95.8%; on DOT1L (setting [2]) it was 92.3%; on NSD3 (setting [1]) it was 136%; at NSD3 (setting [2]), 145%; at PRMT1 (setting [1]), 98.9%; on PRMT1 (setting [2]), 96%. For the same compound, the remaining activity at 10 µM on PRMT3 (setting [1]) worked out at 92%; on PRMT3 (setting [2]), 102%; on SUV39H1 (setting [1]), 96%; on SUV39H1 (setting [2]), 105%; on SUV39H2 it was 102%.
